Experimental data from article PMC3155816 (Journal of medicinal chemistry, 2011).
pEC50, pIC50: −log10 of the molar value. Values after ≈ are worked out from the molar mass of the structure shown. Values joined by “and” are separate entries in the source; they are usually repeats but may differ in a detail not shown here. Identical values can stand only once.

Legend:
[1] = Cytotoxicity by LDH release; type: cell-based; details: African green monkey, BSC-1 cells
[2] = Solubility in PBS by chemiluminescence of total nitrogen; type: physicochemical
[3] = target: vaccinia E9 DNA polymerase with A20 and D4 (processivity complex) (Vaccinia virus, UniProt P04303); assay: biochemical
[4] = tested on: Vaccinia virus (WR strain); assay: microbe, parasite or virus in culture; type: cell-based; details: Orthopoxvirus vaccinia, BSC-1, read-out: Plaque Reduction EC50
[5] = target: vaccinia virus D4 (Vaccinia virus, UniProt P04303); type: binding

| Structure (SMILES) | solubility [2] | pEC50 [4] | also measured |
| --- | --- | --- | --- |
| O=C1c2ccccc2-c2onc3c(NCCO)cc(NC4CCCCC4)c1c23 [Compound 9, 10-(cyclohexylamino)-12-[(2-hydroxyethyl)amino]-15-oxa-14-azatetracyclohexadeca-1(16),2,4,6,9,11,13-heptaen-8-one] | 1.4 µg/mL and 3.6 µM | 5.09 | CC50 at 20 h [1]: 127 µM; pIC50 [3]: 4.47; Tm [5]: 51.4 ± 9.1 °C; ΔTm [5]: 13.1 °C |
| Cc1ccc2oc(-c3ccc(Cl)cc3)c(O)c(=O)c2c1 [Compound 5] |  | ≤ 3.70 |  |
| COc1ccc(C)cc1N(CC(=O)N1CCC(C)CC1)S(=O)(=O)c1ccc(C)cc1 [Compound 26] |  | ≤ 3.70 |  |
| Cn1c(=O)n(C)c2cc(NS(=O)(=O)c3ccc(C(C)(C)C)cc3)c(NCc3ccccc3)cc21 [Compound 14, N-[6-(benzylamino)-1,3-dimethyl-2-oxo-2,3-dihydro-1H-1,3-benzodiazol-5-yl]-4-tert-butylbenzene-1-sulfonamide] | 1.9 µM (≈ 0.909 µg/mL) |  |  |
| Cc1cc2n(n1)C(c1cc(C(C)(C)C)c(O)cc1O)Nc1ccccc1-2 (stereo not shown) [Compound 15, 4-tert-butyl-6-{2-methyl-5H,6H-pyrazolo[1,5-c]quinazolin-5-yl}benzene-1,3-diol] | 54.7 µM (≈ 19.1 µg/mL) | 4.63 |  |
| COc1cc(-c2nc(-c3ccccc3)c(-c3ccc(Br)cc3)[nH]2)cc(OC)c1O [Compound 27, 4-[5-(4-bromophenyl)-4-phenyl-1H-imidazol-2-yl]-2,6-dimethoxyphenol] | 3.2 µM (≈ 1.44 µg/mL) | 4.65 |  |
| Oc1ccc(NCc2ccccc2OCc2ccccc2)cc1 [Compound 10, 4-({[2-(benzyloxy)phenyl]methyl}amino)phenol] | 3.5 µM (≈ 1.07 µg/mL) | 5.01 |  |
| COc1ccc(Nc2nc(Nc3ccc(OC)cc3OC)nc(N3CCOCC3)n2)c(OC)c1 [Compound 12] |  | ≤ 3.70 |  |
